From patent US6433012B1, “Method for inhibiting inflammatory disease” (Large Scale Biology Corp., priority 1998, dated 2002)
Entries after “also recorded” stand apart in the source; their conditions may differ.

Experiments:
[1] = test system: rhodamine-labeled tubulin; assay: Cell-free fluorescence assay of microtubule assembly; assay type: biochemical; conditions: 15 μM tubulin, GTP
Source text: Microtubules are major cytoskeletal components composed of α- and β-tubulin heterodimers bound with GTP. […] The effect of the drug on microtubule assembly was investigated directly by using a cell-free fluorescence assay involving the visualization of microtubule formation from rhodamine-labeled tubulin and microtubule seeds in the presence of GTP.

MCF-7 cells = assay: Flow cytometry, cell-cycle progression; assay type: cell-based, human; conditions: 1 μM, within 24 h
Source text: Such arrested cells eventually undergo cell death which can occur by an apoptotic mechanism.

[2] = test system: R3230Ac rat mammary carcinoma; assay: Dorsal skin-fold window chamber assay; assay type: in vivo, Fischer 344 rats
Source text: Details of the design and the surgical technique used for the rat dorsal skin-fold window chamber assay have been described elsewhere (Pappenfuss et al., Microvasc. Res. 18:311-318 (1979)). Briefly, the anatomical midline of the dorsal skin flap of an anesthetized rat was sutured to a pair of C-clamps and a skin-fold was retracted from the body surface by hanging the C-clamp on a stage. A circle of 1 cm of skin on each side of the skin-fold was surgically removed leaving two layers of fascia containing a few microvessels. After a pair of window frames was mounted, a piece of a R3230Ac rat mammary carcinoma (about 0.5 mm^3) from a donor rat was implanted onto the fascia in the window and the chamber was sealed with glass cover slips. On the fourth postoperative day, all tumor-containing windows were evaluated using an intravital microscope. The viability of the tumor implants, vasculature morphology, and blood flow in each window were crudely scored with 1-3 points assigned to each category. Only those windows with more than 6 points on this scale were included for further study. […] Tumor-window-bearing animals were randomly divided into treated and control groups that were stratified by the window scores. […] On day 12, the tumor windows were evaluated for the effect of the drug on tumor growth and vascularization. Images of whole tumors and tumor vasculature were obtained from four peripheral tumor areas, three to four central tumor areas, and from four areas in the surrounding granulating tissue, as described above. Again, measurements of various image parameters were made by an investigator who was unaware of the treatment protocol. Using the image analysis software, the cumulative length of all vessels in focus in each image was measured. Vascular length densities were calculated by dividing the total vessel length in a frame by the area of the frame. The diameters of all vessels in each image at high magnification were also measured and averaged.
All data were reported as means +/− the SEM for each group. The statistical significance of differences between treated and control groups was determined by using an unpaired t-test or the Mann-Whitney U-test. Statistically significant differences were defined as having a p<0.05.

[3] = oral, postoperative days 5 to 11, no significant difference to controls

With `COC(=O)c1cc(I)c(Oc2ccc(OC)cc2)c(I)c1` [BTO-956, methyl-3,5-diiodo-4-(4′-methoxyphenoxy)benzoate] the microtubule formation ([1]; compound 1 μM) was “much shorter structures”, the microtubule formation ([1]; compound 10 μM) was “The same effect was observed” and the “cells arrested at G2/M” value (MCF-7 cells) was “at least 60%”. The “reduction of tumor areas compared with controls” value ([2]; oral, postoperative days 5 to 11) was “more than 50%”, the “vascular diameter in central tumor areas” value [2, 3] was 35.84±9.63 μm and the “vascular diameter in peripheral tumor areas” value [2, 3] was 32.19±4.46 μm. For the same molecule, the “vascular diameter in surrounding areas” value [2, 3] was 21.52±3.33 μm, the “vascular length density in central tumor areas” value [2, 3] was 3.26±0.81 mm/mm^2 and the “vascular length density in surrounding granulating tissue” value [2, 3] was 8.71±1.05 mm/^2. For the same molecule, the “body weight loss or behavioral changes / toxic effects” value ([2]; tumor-bearing rats, oral 500 mg/kg, up to seven days, 500 mg/kg) was “No significant body weight loss or behavioral changes; also recorded: No serious toxic effects”.
